Test [1] concerns Thy1+CD24+Lin− CSC-enriched cells from MMTV-Wnt-1 breast tumors. As to the kind of experiment: In vitro colony assay (clonogenic survival), CSC-enriched cells. Type of test: cell-based, mouse. From the text:
Given the overexpression of genes involved in GSH synthesis by CSCs, we wished to assess the sensitivity of these cells to ROS elevation via pharmacologic depletion of GSH. Exposure of Thy1^+CD24^+Lin″ CSC-enriched cells to Buthionine Sulfoximine (BSO), which inhibits glutamate-cysteine ligase, decreased their colony forming ability by approximately three fold (FIG. 4d). Finally, we asked if GSH depletion would radiosensitize CSCs. […] The mechanism leading to low ROS levels in some CSCs appears to be at least partially due to the increased production of free radical scavengers. […] The low ROS subset found in the various stem cell populations may also represent a quiescent subpopulation. […]
Cells were analyzed, collected by FACS, and injected into recipient mice as described with minor modifications from mouse mammary glands, human breast cancers, human head and neck cancers, and MMTV-Wnt-1 mouse tumors. […] For intracellular ROS analysis, cells were loaded with 10 μM DCF-DA (Invitrogen), incubated at 37° C. for 30 min, and immediately analyzed by flow cytometry. […] DNA damage was evaluated using the single-cell gel electrophoresis assay under alkaline conditions. […] After reverse transcription, genes were pre-amplified (22 cycles) using the same Taqman primers (Applied Biosystems) used for quantification. Products were analyzed using qPCR DynamicArray microfluidic chips (Fluidigm). […]

Test [2] concerns “Not Thy1+CD24+” Lin− non-tumorigenic cells (NTCs) from MMTV-Wnt-1 breast tumors. As to the kind of experiment: In vitro colony assay (clonogenic survival after ionizing radiation), non-tumorigenic cells. The following applies: 10 mM tempol for 15 minutes prior to irradiation, drug then removed; FIG. 4c. Type of test: cell-based, mouse. From the text: In order to pharmacologically manipulate ROS levels separately in CSCs and NTCs, we employed in vitro culture conditions that allowed both cell populations to produce colonies upon co-culture with irradiated feeder cells. […] When exposed to 2 Gy, a dose commonly administered clinically during daily treatments of breast cancer patients, 2.0-fold+/−0.2 more CSC-enriched colonies survived than NTC colonies. Next, we attempted to radioprotect NTCs by exposing them to the nitroxide antioxidant tempol.
Cells were analyzed, collected by FACS, and injected into recipient mice as described with minor modifications from mouse mammary glands, human breast cancers, human head and neck cancers, and MMTV-Wnt-1 mouse tumors. […] For intracellular ROS analysis, cells were loaded with 10 μM DCF-DA (Invitrogen), incubated at 37° C. for 30 min, and immediately analyzed by flow cytometry. […] DNA damage was evaluated using the single-cell gel electrophoresis assay under alkaline conditions. […] After reverse transcription, genes were pre-amplified (22 cycles) using the same Taqman primers (Applied Biosystems) used for quantification. Products were analyzed using qPCR DynamicArray microfluidic chips (Fluidigm). […] After 24-48 hrs, the media was replaced with serum-free Epicult B, and colonies counted ˜7 days later. […] Levels of significance were determined by Student's t-tests using (=0.05. […]

SMILES strings stand for the structures.

As for `CCCCS(=N)(=O)CC[C@H](N)C(=O)O` (stereo partly drawn) [BSO, L-S,R-Buthionine Sulfoximine], the “Clonogenic survival after ionizing radiation (radiosensitization)” value in test [1] (1 mM BSO 24 hour pretreatment, removed prior to irradiation, 3 Gy, FIG. 4e) is listed as “significant radiosensitization”. In addition, the “Decrease in colony forming ability” value in test [1] (24 hour pre-treatment with 1 mM BSO, no irradiation, FIG. 4d) was “approximately three”.

Take `CC1(C)CC(O)CC(C)(C)N1[O]` [tempol]: the “Clonogenic survival of NTCs after irradiation (radioprotection)” value in test [2] was “radioprotected NTCs, and resulted in survival levels similar to those seen in the CSC-enriched population”.

These data come from US20110124032A1, “Methods and Compositions for Treating Carcinoma Stem Cells” (priority 2008, published 2011).
